pIC50, pKi: −log10 of the molar value. Active and inactive are the calls of the source. The calls are words filed in the database; no cut-off is given here.
How the values were obtained:
[1] = test system: Human immunodeficiency virus 1; assay: Antiviral activity against HIV1 NL43 infected in U87.CD4 cells expressing human wild type CXCR4; format: functional, organism-based; settings: Human immunodeficiency virus 1, NL43, U87.CD4
[2] = test system: Human immunodeficiency virus 1; assay: Antiviral activity against HIV1 NL43 infected in U87.CD4 cells expressing human CXCR4 D171N/D262N mutant; format: functional, organism-based
[3] = target: C-X-C chemokine receptor type 4 (Homo sapiens, UniProt P61073, H113A); assay: (§1) Antagonist activity at human CXCR4 H113A mutant expressed in COS7 cells coexpressing G protein Gqi4myr assessed as inhibition of CXCL12-induced phosphatidylinositol turnover; format: functional, cell-based, COS-7
Chain of C-X-C chemokine receptor type 4 (Homo sapiens, UniProt P61073, H113A) (P61073 whole entry H113A): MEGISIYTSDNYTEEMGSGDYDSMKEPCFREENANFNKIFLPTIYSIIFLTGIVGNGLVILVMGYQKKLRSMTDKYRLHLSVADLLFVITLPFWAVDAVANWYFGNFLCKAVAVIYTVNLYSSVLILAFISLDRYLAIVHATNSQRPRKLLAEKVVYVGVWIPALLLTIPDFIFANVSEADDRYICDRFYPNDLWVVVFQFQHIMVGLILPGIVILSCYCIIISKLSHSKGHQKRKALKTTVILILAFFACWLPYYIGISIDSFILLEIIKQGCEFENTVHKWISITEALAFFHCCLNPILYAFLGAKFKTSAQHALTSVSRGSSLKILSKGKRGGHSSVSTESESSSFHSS

[4] = test system: C-X-C chemokine receptor type 4 (Homo sapiens), P61073 [H113A]; assay: as §1; format: functional, cell-based; settings: COS-7
Chain of C-X-C chemokine receptor type 4 (Homo sapiens), P61073 [H113A] (P61073 whole entry H113A): as above

[5] = test system: Human immunodeficiency virus 1; assay: Antiviral activity against HIV1 clinical isolate 10 infected in U87.CD4 cells expressing human CXCR4 D171ND262N mutant; format: functional, organism-based; settings: Human immunodeficiency virus 1, U87.CD4
[6] = test system: C-X-C chemokine receptor type 4 (Homo sapiens), P61073 [Q200W]; assay: Antagonist activity at human CXCR4 Q200W mutant expressed in COS7 cells coexpressing G protein Gqi4myr assessed as inhibition of CXCL12-induced phosphatidylinositol turnover; format: functional, cell-based; settings: COS-7
Chain of C-X-C chemokine receptor type 4 (Homo sapiens), P61073 [Q200W] (P61073 whole entry Q200W): as the sequence (P61073 whole entry H113A) above, with A113H, Q200W counted along it

[7] = test system: Human immunodeficiency virus 1; assay: Antiviral activity against HIV1 NL43 infected in U87.CD4 cells expressing human CXCR4 D171N mutant; format: functional, organism-based; settings: Human immunodeficiency virus 1, NL43, U87.CD4
[8] = test system: Human immunodeficiency virus 1; assay: Antiviral activity against HIV1 clinical isolate 10 infected in U87.CD4 cells expressing human CXCR4 H281A mutant; format: functional, organism-based; settings: Human immunodeficiency virus 1, U87.CD4
[9] = test system: Human immunodeficiency virus 1; assay: Antiviral activity against HIV1 NL43 infected in U87.CD4 cells expressing human CXCR4 D262N mutant; format: functional, organism-based; settings: Human immunodeficiency virus 1, NL43, U87.CD4
[10] = test system: C-X-C chemokine receptor type 4 (Homo sapiens), P61073 [G207F]; assay: (§2) Displacement of [125I]12G5 antibody from transmembrane domain 5 of human CXCR4 G207F mutant expressed in COS7 cells; format: cell-based; settings: COS-7
Chain of C-X-C chemokine receptor type 4 (Homo sapiens), P61073 [G207F] (P61073 whole entry G207F, the tested form may be a part): as the sequence (P61073 whole entry H113A) above, with A113H, G207F counted along it

[11] = target: C-X-C chemokine receptor type 4 (Homo sapiens, UniProt P61073, G207F); assay: as §2; format: cell-based, COS-7
Chain of C-X-C chemokine receptor type 4 (Homo sapiens, UniProt P61073, G207F) (P61073 whole entry G207F): as the sequence (P61073 whole entry H113A) above, with A113H, G207F counted along it

[12] = target: C-X-C chemokine receptor type 4 (Homo sapiens, UniProt P61073, I259W); assay: (§3) Antagonist activity at human CXCR4 I259W mutant expressed in COS7 cells coexpressing G protein Gqi4myr assessed as inhibition of CXCL12-induced phosphatidylinositol turnover; format: functional, cell-based, COS-7
Chain of C-X-C chemokine receptor type 4 (Homo sapiens, UniProt P61073, I259W) (P61073 whole entry I259W): as the sequence (P61073 whole entry H113A) above, with A113H, I259W counted along it

[13] = test system: C-X-C chemokine receptor type 4 (Homo sapiens), P61073 [I259W]; assay: as §3; format: functional, cell-based; settings: COS-7
Chain of C-X-C chemokine receptor type 4 (Homo sapiens), P61073 [I259W] (P61073 whole entry I259W): as the sequence (P61073 whole entry H113A) above, with A113H, I259W counted along it

[14] = test system: C-X-C chemokine receptor type 4 (Homo sapiens), P61073 [H281A]; assay: Antagonist activity at human CXCR4 H281A mutant expressed in U87.CD4 cells assessed as inhibition of CXCL12-induced calcium mobilization; format: functional, cell-based
Chain of C-X-C chemokine receptor type 4 (Homo sapiens), P61073 [H281A] (P61073 whole entry H281A): as the sequence (P61073 whole entry H113A) above, with A113H, H281A counted along it

[15] = test system: C-X-C chemokine receptor type 4 (Homo sapiens), P61073 [T287A]; assay: (§4) Antagonist activity at human CXCR4 T287A mutant expressed in COS7 cells coexpressing G protein Gqi4myr assessed as inhibition of CXCL12-induced phosphatidylinositol turnover; format: functional, cell-based; settings: COS-7
Chain of C-X-C chemokine receptor type 4 (Homo sapiens), P61073 [T287A] (P61073 whole entry T287A): as the sequence (P61073 whole entry H113A) above, with A113H, T287A counted along it

[16] = target: C-X-C chemokine receptor type 4 (Homo sapiens, UniProt P61073, T287A); assay: as §4; format: functional, cell-based, COS-7
Chain of C-X-C chemokine receptor type 4 (Homo sapiens, UniProt P61073, T287A) (P61073 whole entry T287A): as the sequence (P61073 whole entry H113A) above, with A113H, T287A counted along it

[17] = target: C-X-C chemokine receptor type 4 (Homo sapiens, UniProt P61073, V196A); assay: (§5) Antagonist activity at human CXCR4 V196A mutant expressed in COS7 cells coexpressing G protein Gqi4myr assessed as inhibition of CXCL12-induced phosphatidylinositol turnover; format: functional, cell-based, COS-7
Chain of C-X-C chemokine receptor type 4 (Homo sapiens, UniProt P61073, V196A) (P61073 whole entry V196A): as the sequence (P61073 whole entry H113A) above, with A113H, V196A counted along it

[18] = test system: C-X-C chemokine receptor type 4 (Homo sapiens), P61073 [V196A]; assay: as §5; format: functional, cell-based; settings: COS-7
Chain of C-X-C chemokine receptor type 4 (Homo sapiens), P61073 [V196A] (P61073 whole entry V196A): as the sequence (P61073 whole entry H113A) above, with A113H, V196A counted along it

[19] = test system: Human immunodeficiency virus 1; assay: Antiviral activity against HIV1 clinical isolate 10 infected in U87.CD4 cells expressing human CXCR4 D171N mutant; format: functional, organism-based; settings: Human immunodeficiency virus 1, U87.CD4
[20] = test system: Human immunodeficiency virus 1; assay: Antiviral activity against HIV1 NDK infected in U87.CD4 cells expressing human CXCR4 H281A mutant; format: functional, organism-based; settings: Human immunodeficiency virus 1, NDK

SMILES: c1ccc(CNCc2ccc(CN3CCCNCCNCCCNCC3)cc2)nc1
- pIC50 [1]: 4.44
- Activity [2]: Active
- pKi [3]: 6.89
- logIC50 [4]: -6.89
- pIC50 [5]: 5.39
- logIC50 [6]: -6.65
- pIC50 [7]: 3.79
- pIC50 [8]: 5.71
- pIC50 [9]: 7.42
- logKi [10]: -6.81
- pKi [11]: 6.80
- pKi [12]: 7.10
- logIC50 [13]: -7.08
- Activity [14]: inactive
- logIC50 [15]: -8.1
- pKi [16]: 8.00
- pKi [17]: 6.70
- logIC50 [18]: -7.71
- pIC50 [19]: 3.74
- pIC50 [20]: 7.43

Reference: ChEMBL document CHEMBL1156482, “Molecular mechanism of action of monocyclam versus bicyclam non-peptide antagonists in the CXCR4 chemokine receptor” (J Biol Chem, 2007)
